Experiments:
Test in all cases: selective drug sensitivity score (sDSS, relative to normal bone marrow) (sDSS (score)); higher = more potent and effective on the cell line relative to normal bone marrow cells
Conditions in all cases: 72 h
SEM cells = test system: SEM cells
MOLT-14 = test system: MOLT-14
PF-382 = test system: PF-382
ALL-PO = test system: ALL-PO
NALL-1 = test system: NALL-1
P12-ICHIKAWA = test system: P12-ICHIKAWA
MHH-CALL-3 = test system: MHH-CALL-3
NALM-16 = test system: NALM-16
TANOUE = test system: TANOUE
MHH-CALL-2 = test system: MHH-CALL-2
COG-LL-355h = test system: COG-LL-355h
COG-LL-317 = test system: COG-LL-317
LC4-1 = test system: LC4-1
KOPN-8 = test system: KOPN-8
MHH-CALL-4 = test system: MHH-CALL-4
DND-41 = test system: DND-41
CCRF-CEM = test system: CCRF-CEM
KASUMI-9 = test system: KASUMI-9
CCRF-HSB2 = test system: CCRF-HSB2
RPMI-8402 = test system: RPMI-8402
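Note: ALL cell lines in 384-well plates, five doses spanning 10,000-fold, each plate scaled between vehicle and 100 µmol/L benzalkonium chloride controls, sDSS an adapted area-under-curve metric.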

Row | SMILES | selective drug sensitivity score (SEM cells) | selective drug sensitivity score (MOLT-14) | selective drug sensitivity score (PF-382) | selective drug sensitivity score (ALL-PO) | selective drug sensitivity score (NALL-1) | selective drug sensitivity score (P12-ICHIKAWA) | selective drug sensitivity score (MHH-CALL-3) | selective drug sensitivity score (NALM-16) | selective drug sensitivity score (TANOUE) | selective drug sensitivity score (MHH-CALL-2) | selective drug sensitivity score (COG-LL-355h) | selective drug sensitivity score (COG-LL-317) | selective drug sensitivity score (LC4-1) | selective drug sensitivity score (KOPN-8) | selective drug sensitivity score (MHH-CALL-4) | selective drug sensitivity score (DND-41) | selective drug sensitivity score (CCRF-CEM) | selective drug sensitivity score (KASUMI-9) | selective drug sensitivity score (CCRF-HSB2) | selective drug sensitivity score (RPMI-8402)
1 | CCN(CC)C(=S)SSC(=S)N(CC)CC [Disulfiram(+CuCl2)] (top concentration 50000 nM) | -2.12 | -2.02 | -0.02 | -2.12 | 16.1 | -2.12 | 1.78 | -2.12 | -1.62 | 8.58 | 1.48 | -2.12 | 7.38 | 15.8 | 3.38 | -2.12 | -2.12 | 2.28 | -2.12 | -2.12
2 | Nc1ncn([C@H]2C[C@H](O)[C@@H](CO)O2)c(=O)n1 [Decitabine] (top concentration 10000 nM) | 1.74 | 0.44 | -1.16 | 4.54 | -5.96 | 1.14 | 2.34 | -2.96 | -6.06 | 1.04 | -0.96 | 14.9 | -0.06 | 10.2 | 0.54 | -4.66 | 4.44 | -0.16 | 1.14 | 1.24
3 | COc1cccc2c1C(=O)c1c(O)c3c(c(O)c1C2=O)C[C@@](O)(C(C)=O)C[C@@H]3O[C@H]1C[C@H](N)[C@H](O)[C@H](C)O1 [Daunorubicin] (top concentration 1000 nM) | 6.06 | 9.66 | 1.26 | -0.34 | -4.04 | 6.96 | 16.4 | -2.14 | -9.54 | 6.16 | 5.06 | 14.8 | 6.36 | 6.56 | 7.46 | -0.54 | 9.16 | 7.06 | 12.5 | 8.96
4 | CCc1c2c(nc3ccc(O)cc13)-c1cc3c(c(=O)n1C2)COC(=O)[C@]3(O)CC [SN-38] (top concentration 10000 nM) | 25.4 | 28 | 24.8 | 19.5 | 24.4 | 26.5 | 16.2 | 13.4 | -5.52 | 25.2 | 14.7 | 27.6 | 27.1 | 28 | 19.7 | 25.5 | 27.6 | 23.5 | 28 | 25.4
5 | Oc1nc(-c2ccc(C(F)(F)F)cc2)nc2c1CSCC2 [XAV939] (top concentration 10000 nM) | 0.56 | -0.14 | -0.14 | 0.06 | -0.14 | -0.14 | -0.14 | -0.14 | -0.14 | 0.26 | 0.46 | -0.14 | 0.56 | 0.66 | -0.14 | -0.14 | -0.14 | -0.14 | 0.36 | -0.14
6 | CS(=O)(=O)N1CCN(Cc2cc3nc(-c4cccc5[nH]ncc45)nc(N4CCOCC4)c3s2)CC1 [Pictilisib] (top concentration 10000 nM) | 9.66 | -2.04 | 6.26 | 14.6 | -0.64 | 1.16 | 10.6 | 4.66 | -5.84 | 12.3 | 12 | -0.94 | 0.16 | 14.8 | 9.26 | -1.44 | 5.36 | 10.1 | 4.56 | 6.26
7 | CC(C)(C#N)c1cc(Cn2cncn2)cc(C(C)(C)C#N)c1 [Anastrozole] (top concentration 10000 nM) | 0 | 0 | 0 | 0 | 0 | 0 | 0 | 0 | 0 | 0 | 0 | 0 | 0 | 0 | 0 | 2.9 | 0 | 0 | 0 | 0
8 | Cc1sc2c(c1C)C(c1ccc(Cl)cc1)=N[C@@H](CC(=O)Nc1ccc(O)cc1)c1nnc(C)n1-2 [Birabresib] (top concentration 10000 nM) | 11.6 | 1.72 | 3.42 | 5.22 | -3.58 | 5.22 | 14 | 1.52 | -4.78 | 7.02 | 2.42 | 9.12 | 4.92 | 11.6 | 6.02 | 0.92 | 1.22 | 13.1 | -0.98 | 3.72
9 | CO[C@H]1C[C@@H]2CC[C@@H](C)[C@@](O)(O2)C(=O)C(=O)N2CCCC[C@H]2C(=O)O[C@H]([C@H](C)C[C@@H]2CC[C@@H](OP(C)(C)=O)[C@H](OC)C2)CC(=O)[C@H](C)/C=C(\C)[C@@H](O)[C@@H](OC)C(=O)[C@H](C)C[C@H](C)/C=C/C=C/C=C/1C [Ridaforolimus] (top concentration 100 nM) | 5.66 | -2.44 | 5.86 | 2.66 | -4.44 | -0.94 | 3.96 | -0.04 | -4.84 | -2.24 | -2.14 | 2.76 | 4.46 | 22.2 | -4.44 | -2.54 | 7.36 | 6.96 | 7.46 | -1.44
10 | Nc1ccn([C@@H]2O[C@H](CO)[C@@H](O)[C@@H]2O)c(=O)n1 [Cytarabine] (top concentration 10000 nM) | 15.9 | 25.6 | 19.1 | 8.6 | 10.6 | 24.5 | 15.8 | 8.8 | -8.9 | 19.6 | 4.9 | 27.2 | 21 | 20.9 | 5.4 | 16.3 | 25.7 | 22.7 | 28.7 | 18.6
11 | Cc1cc(OCc2nnc(SC3CCCC3)n2-c2cccnc2)ccc1-c1ccc(S(C)(=O)=O)cc1 [NMS-873] (top concentration 10000 nM) | 5.06 | 7.16 | 11.8 | 4.36 | 3.26 | 19.9 | 6.06 | 2.86 | 19.4 | 6.76 | 4.56 | 0.16 | 4.76 | 4.06 | 6.96 | 4.46 | 1.46 | 1.26 | 10.5 | 21.3
12 | CC(C)Oc1ccc(C(=O)N[C@H](CNC(=O)CN(C)C)Cc2ccc(-c3cn4cccc([C@H](C)O)c4n3)cc2)cc1Cl (top concentration 10000 nM) | 8.88 | 17.4 | 6.68 | 6.88 | 9.88 | 7.28 | -9.32 | 1.68 | -9.32 | 8.58 | -2.62 | 16.6 | 8.28 | 14.2 | 0.78 | -2.62 | 16.2 | 10.3 | 11 | 9.28
13 | Nc1nc(F)nc2c1ncn2[C@@H]1O[C@H](CO)[C@@H](O)[C@@H]1O [Fludarabine] (top concentration 10000 nM) | 4 | 4.3 | -6.6 | 1.6 | 2.3 | -5.5 | 7.5 | -6 | -10.3 | 8 | 5.1 | 3.3 | 6 | 8.4 | 8.3 | 5.5 | 2.3 | 6 | 1.5 | -3.6
14 | O[C@H]1CC[C@H](Nc2ncc3nc(Nc4c(F)cc(F)cc4F)n([C@H]4CCOC4)c3n2)CC1 [Tanzisertib] (top concentration 10000 nM) | 0 | 0 | 0 | 1.9 | 0 | 0 | 0 | 1.2 | 0 | 0.9 | 0.8 | 0 | 0 | 1.4 | 0.2 | 0 | 0 | 0 | 0.2 | 0
15 | CO[C@H]1C[C@@H]2CC[C@@H](C)[C@@](O)(O2)C(=O)C(=O)N2CCCC[C@H]2C(=O)O[C@H]([C@H](C)C[C@@H]2CC[C@@H](OC(=O)C(C)(CO)CO)[C@H](OC)C2)CC(=O)[C@H](C)/C=C(\C)[C@@H](O)[C@@H](OC)C(=O)[C@H](C)C[C@H](C)/C=C/C=C/C=C/1C [Temsirolimus] (top concentration 100 nM) | 1.36 | -4.24 | 7.46 | 2.56 | -5.04 | -1.44 | 7.36 | 0.16 | -5.04 | -0.34 | -2.54 | 3.96 | 3.46 | 21.9 | -3.54 | 3.66 | 7.76 | 9.06 | 7.76 | -1.04
16 | COC(=O)c1ccc2c(c1)NC(=O)/C2=C(\Nc1ccc(N(C)C(=O)CN2CCN(C)CC2)cc1)c1ccccc1 [Nintedanib] (top concentration 10000 nM) | 16 | 1.64 | 5.04 | 11.1 | -2.76 | -2.96 | -0.26 | -1.76 | -6.36 | 1.04 | -0.16 | -1.76 | -4.36 | -5.26 | -1.66 | -3.16 | -1.46 | -1.26 | 28.6 | 1.14
17 | O=C(O)C(=O)O.[NH-][C@@H]1CCCC[C@H]1[NH-].[Pt+2] [Oxaliplatin] (top concentration 100000 nM) | 8.52 | 9.22 | -0.28 | -0.78 | 2.92 | 8.32 | 10.3 | -1.48 | -6.98 | 13.9 | 4.92 | 17.2 | 10.6 | 16.9 | 12.1 | 1.42 | 8.22 | 13.6 | 15 | 8.02
